IC50 data for 28 compounds are collected here from patent US8178538B2, “Pyridazinones” (Hoffmann-La Roche Inc., priority 2008, dated 2012).

Molecules are shown by their SMILES.

T1 sequence (Q9Y233 715-1055): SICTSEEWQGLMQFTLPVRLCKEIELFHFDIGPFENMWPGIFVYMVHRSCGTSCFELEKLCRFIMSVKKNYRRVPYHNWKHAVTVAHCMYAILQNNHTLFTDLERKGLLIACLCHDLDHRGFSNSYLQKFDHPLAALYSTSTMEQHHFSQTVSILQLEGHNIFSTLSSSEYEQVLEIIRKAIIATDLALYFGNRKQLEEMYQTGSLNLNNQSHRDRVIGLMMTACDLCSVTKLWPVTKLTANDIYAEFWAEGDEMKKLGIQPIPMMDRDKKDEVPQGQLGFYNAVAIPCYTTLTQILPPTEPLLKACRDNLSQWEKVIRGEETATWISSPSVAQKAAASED

This experiment addresses T1, PDE10A2 (Homo sapiens, UniProt Q9Y233).
T1 construct: residues serine 449 to aspartate 789; His6 (H6) with thrombin cleavage site (N, cleaved yes); made in house; host or cells: E. coli BL21(DE3) pLysS
Put plainly: PDE10A2 inhibition, Scintillation Proximity Assay (SPA). The class given is biochemical. As to conditions: catalytic domain of human PDE10A2 (S449-D789), 0.25 nM enzyme, 50 nM cGMP + 50 nM [3H]-cGMP, 30 minutes at room temperature. The protocol: The following tests were carried out in order to determine the activity of the compounds of the present invention. PDE10 activity of the compounds of the present invention is determined using a Scintillation Proximity Assay (SPA)-based method similar to the one previously described (Fawcett, L. et al., Proc Natl Acad Sci USA (2000) 97(7):3702-3707).
PDE10A1 and PDE10A2 are two splice variants of PDE10A. There are these 2 splice variants known, which differ in the N-terminal part of the protein. The catalytic domains of PDE10A1 and PDE10A2 are identical. The assay for PDE10A2 described below is therefore also representative for PDE10A1 and also for PDE10A in general.
The PDE10A2 assay was performed in a two step procedure in 96-well micro titer plates. The reaction mixture of 80 μl contained 20 mM HEPES/10 mM MgCl2/[…] (pH 7.5), 50 nM cGMP (Sigma) and 50 nM [^3H]-cGMP (GE Healthcare), 0.25 nM PDE10A2 with or without a specific test compound. A range of concentrations of the potential inhibitor was used to generate data for calculating the concentration of inhibitor resulting in 50% of the effect (e.g. IC50, the concentration of the competitor inhibiting PDE10A2 activity 50%). Non-specific activity was tested without the enzyme. The reaction was initiated by addition of the substrate solution (cGMP and [^3H]-cGMP) and allowed to progress for 30 minutes at room temperature. The reaction was terminated by transferring 50 μl of the reaction mixture into an OptiPlate (Perkin Elmer) containing 25 μl of YSi-SPA scintillation beads (GE Healthcare) in 18 mM zinc sulphate solution (stop reagent). After 1 h under shaking, the plate was centrifuged one minute at 1000 rpm to allow beads to settle. Afterwards, radioactive counts were measured on a Perkin Elmer TopCount Scintillation plate reader.
The catalytic domain of human PDE10A2, residues serine 449 to aspartate 789, was amplified by PCR using cDNA (Origene) and the oligonucleotides 5′-GGGGACAAGTTT […]-3′ (SEQ ID NO. 1) (with AttB1 recombination site in bold and thrombin protease cleavage site in italics) and 5′-[…] GCTG-3′ (SEQ ID NO. 2) (with AttB2 recombination site in bold) which conferred Gateway recombination sites. The PCR product was used in a BP recombination reaction with pDONR221 to generate pENTR Thm-PDE10A2(S449-D789) which was DNA sequence verified and then used in an LR recombination reaction with a Gateway modified version of pET11a. The resulting expression vector, placT7.2H6-(gw1)-Thm-PDE10A2(S449-D789) was DNA sequence confirmed and transformed into E. coli strain BL21(DE3) pLysS and recombinant protein was produced in TB medium at 20° C. by induction to a final IPTG concentration of 0.5 mM at an optical density of 1.0 at 600 nm for 20 hours. About 30% of the protein was in the soluble fraction of the cell homogenate. The protein was purified using sequential chromatography on Ni-NTA and HiTrapQ/HiTrapS. After thrombin digest at room temperature a HiTrapChelating/HiTrap Benzamindin chromatography removed impurities, uncleaved protein and thrombin. Final purification of PDE10A2(S449-D789) was performed on a Superdex 75 size exclusion chromatography equilibrated with 25 mM HEPES pH 8.4, 0.15 M NaCl. The yield of pure protein was 2 mg/liter of culture volume is relatively low. The purity of the protein was >95%, monomeric and monodisperse as shown by SDS-PAGE, HPLC and analytical ultracentrifugation.
Consider `N#Cc1cccc(-n2ccc(=O)c(-c3ccnn3-c3ccnc4ccccc34)n2)c1` [Example 207, 3-[4-Oxo-3-(2-quinolin-4-yl-2H-pyrazol-3-yl)-4H-pyridazin-1-yl]-benzonitrile], for which the 50% inhibitory concentration (IC50) worked out at 5 nM. To `Cc1cc(-n2nccc2-c2nn(-c3cccc(OC(F)(F)F)c3)ccc2=O)c2cc(F)ccc2n1` [Example 177, 3-[2-(6-Fluoro-2-methyl-quinolin-4-yl)-2H-pyrazol-3-yl]-1-(3-trifluoromethoxy-phenyl)-1H-pyridazin-4-one] belongs 27 nM; to `O=c1ccn(-c2ccc(OCC(F)(F)F)cc2)nc1-c1ccnn1-c1ccnc2ccccc12` [Example 259, 3-(2-Quinolin-4-yl-2H-pyrazol-3-yl)-1-[4-(2,2,2-trifluoro-ethoxy)-phenyl]-1H-pyridazin-4-one], 1 nM. To `O=c1ccn(-c2ccc(OC(F)(F)F)cc2)nc1-c1ccnn1-c1ccc(F)cc1` [Example 138, 3-[2-(4-Fluoro-phenyl)-2H-pyrazol-3-yl]-1-(4-trifluoromethoxy-phenyl)-1H-pyridazin-4-one] belongs 37 nM; to `CS(=O)(=O)c1cccc(-n2ccc(=O)c(-c3ccnn3-c3cccc4ccccc34)n2)c1` [Example 85, 1-(3-Methanesulfonyl-phenyl)-3-(2-naphthalen-1-yl-2H-pyrazol-3-yl)-1H-pyridazin-4-one], 2 nM. Next, `CNC(=O)c1cccc(-n2ccc(=O)c(-c3ccnn3-c3ccccc3F)n2)c1` [Example 293, 3-{3-[2-(2-Fluoro-phenyl)-2H-pyrazol-3-yl]-4-oxo-4H-pyridazin-1-yl}-N-methyl-benzamide]: 38 nM; `CCc1cnn(-c2ccccc2)c1-c1nn(-c2cccc(S(C)(=O)=O)c2)ccc1=O` [Example 89, 3-(4-Ethyl-2-phenyl-2H-pyrazol-3-yl)-1-(3-methanesulfonyl-phenyl)-1H-pyridazin-4-one]: 2270 nM. In the case of `O=c1ccn(-c2cccc(OC(F)F)c2)nc1-c1ccnn1-c1cccc(Cl)c1` [Example 206, 3-[2-(3-Chloro-phenyl)-2H-pyrazol-3-yl]-1-(3-difluoromethoxy-phenyl)-1H-pyridazin-4-one], the IC50 came to 17 nM. In the case of `O=c1ccn(-c2ccccc2)nc1-c1ccnn1-c1ccnc(Cl)c1` [Example 25, 3-[2-(2-Chloro-pyridin-4-yl)-2H-pyrazol-3-yl]-1-phenyl-1H-pyridazin-4-one], the IC50 came out at 378 nM. Next, `NC(=O)c1cccc(-n2nccc2-c2nn(-c3cccc(OC(F)(F)F)c3)ccc2=O)c1` [Example 43, 3-{5-[4-Oxo-1-(3-trifluoromethoxy-phenyl)-1,4-dihydro-pyridazin-3-yl]-pyrazol-1-yl}-benzamide]: 888 nM; `O=c1ccn(-c2cccc(OC(F)(F)F)c2)nc1-c1ccnn1-c1ccc2c(c1)OC(F)(F)O2` [Example 162, 3-[2-(2,2-Difluoro-benzo[1,3]dioxol-5-yl)-2H-pyrazol-3-yl]-1-(3-trifluoromethoxy-phenyl)-1H-pyridazin-4-one]: 155 nM. To `O=c1ccn(-c2ccccc2)nc1-c1ccnn1-c1ccccn1` [Example 13, 1-Phenyl-3-(2-pyridin-2-yl-2H-pyrazol-3-yl)-1H-pyridazin-4-one] belongs 1430 nM; to `CC(=O)Nc1cccc(-n2ccc(=O)c(-c3ccnn3-c3ccccc3F)n2)c1` [Example 292, N-(3-{3-[2-(2-Fluoro-phenyl)-2H-pyrazol-3-yl]-4-oxo-4H-pyridazin-1-yl}-phenyl)-acetamide], 21 nM; to `Cc1ccccc1-n1nccc1-c1nn(-c2ccc(C(F)(F)F)cc2)ccc1=O` [Example 216, 3-(2-o-Tolyl-2H-pyrazol-3-yl)-1-(4-trifluoromethyl-phenyl)-1H-pyridazin-4-one], 20 nM.

In the case of `O=C(OCCF)c1cccc(-n2ccc(=O)c(-c3ccnn3-c3cccc4ccccc34)n2)c1` [Example 295, 3-[3-(2-Naphthalen-1-yl-2H-pyrazol-3-yl)-4-oxo-4H-pyridazin-1-yl]-benzoic acid 2-fluoro-ethyl ester], the IC50 stood at 2 nM. To `O=c1ccn(-c2ccc(OC(F)(F)F)cc2)nc1-c1ccnn1-c1ccnc2ccccc12` [Example 186, 3-(2-Quinolin-4-yl-2H-pyrazol-3-yl)-1-(4-trifluoromethoxy-phenyl)-1H-pyridazin-4-one] belongs 2 nM; to `C#Cc1cccc(-n2nccc2-c2nn(-c3ccccc3)ccc2=O)c1` [Example 32, 3-[2-(3-Ethynyl-phenyl)-2H-pyrazol-3-yl]-1-phenyl-1H-pyridazin-4-one], 5 nM. To `O=c1ccn(-c2cccc(OC(F)(F)F)c2)nc1-c1ccnn1-c1cccc2ncccc12` [Example 203, 3-(2-Quinolin-5-yl-2H-pyrazol-3-yl)-1-(3-trifluoromethoxy-phenyl)-1H-pyridazin-4-one] belongs 13 nM; to `O=c1ccn(-c2cccc(OC(F)(F)F)c2)nc1-c1ccnn1-c1ccc2c(c1)OCCO2` [Example 79, 3-[2-(2,3-Dihydro-benzo[1,4]dioxin-6-yl)-2H-pyrazol-3-yl]-1-(3-trifluoromethoxy-phenyl)-1H-pyridazin-4-one], 7 nM; to `O=c1ccn(-c2ccc(S(=O)(=O)C(F)(F)F)cc2)nc1-c1ccnn1-c1ccccc1F` [Example 232, 3-[2-(2-Fluoro-phenyl)-2H-pyrazol-3-yl]-1-(4-trifluoromethanesulfonyl-phenyl)-1H-pyridazin-4-one], 12 nM. Next, `N#Cc1cccc(-n2nccc2-c2nn(-c3cccc4c3OCO4)ccc2=O)c1` [Example 114, 3-[5-(1-Benzo[1,3]dioxol-4-yl-4-oxo-1,4-dihydro-pyridazin-3-yl)-pyrazol-1-yl]-benzonitrile]: 82 nM; `Cc1cc(-n2nccc2-c2nn(-c3cccc(S(=O)(=O)N(C)C)c3)ccc2=O)ccn1` [Example 133, N,N-Dimethyl-3-{3-[2-(2-methyl-pyridin-4-yl)-2H-pyrazol-3-yl]-4-oxo-4H-pyridazin-1-yl}-benzenesulfonamide]: 71 nM. As to `CCc1cccc(-n2ccc(=O)c(-c3ccnn3-c3ccccc3)n2)c1` [Example 17, 1-(3-Ethyl-phenyl)-3-(2-phenyl-2H-pyrazol-3-yl)-1H-pyridazin-4-one], the concentration for half-maximal inhibition (IC50) worked out at 25 nM. As for `Cc1cc(-n2nccc2-c2nn(-c3cccc(OC(F)(F)F)c3)ccc2=O)ccn1` [Example 124, 3-[2-(2-Methyl-pyridin-4-yl)-2H-pyrazol-3-yl]-1-(3-trifluoromethoxy-phenyl)-1H-pyridazin-4-one], the IC50 stood at 57 nM.

Regarding `O=c1ccn(-c2cccc(OC(F)(F)F)c2)nc1-c1ccnn1-c1ccccc1F` [Example 28, 3-[2-(2-Fluoro-phenyl)-2H-pyrazol-3-yl]-1-(3-trifluoromethoxy-phenyl)-1H-pyridazin-4-one], the half-maximal inhibitory concentration (IC50) is 17 nM. Next, `COc1cccc(-n2ccc(=O)c(-c3ccnn3-c3ccccc3)n2)c1` [Example 18, 1-(3-Methoxy-phenyl)-3-(2-phenyl-2H-pyrazol-3-yl)-1H-pyridazin-4-one]: 80 nM; `O=c1ccn(-c2ccc(OC(F)F)cc2)nc1-c1ccnn1-c1cccc(OC(F)(F)F)c1` [Example 165, 1-(4-Difluoromethoxy-phenyl)-3-[2-(3-trifluoromethoxy-phenyl)-2H-pyrazol-3-yl]-1H-pyridazin-4-one]: 51 nM; `CC(=O)N(C)c1cccc(-n2ccc(=O)c(-c3ccnn3-c3ccccc3F)n2)c1` [Example 294, N-(3-{3-[2-(2-Fluoro-phenyl)-2H-pyrazol-3-yl]-4-oxo-4H-pyridazin-1-yl}-phenyl)-N-methyl-acetamide]: 6 nM.
